# Experimental data as given in patent publication US20250171437A1 (Agios Pharmaceuticals,Inc., priority 2022, published 2025).
# Target: T1, human PAH with the R408W mutation (A375 R408W cells) (Homo sapiens, UniProt P00439, R408W)
# T1 construct: expressed in transfected cells
# T1 sequence (P00439 1-452 R408W): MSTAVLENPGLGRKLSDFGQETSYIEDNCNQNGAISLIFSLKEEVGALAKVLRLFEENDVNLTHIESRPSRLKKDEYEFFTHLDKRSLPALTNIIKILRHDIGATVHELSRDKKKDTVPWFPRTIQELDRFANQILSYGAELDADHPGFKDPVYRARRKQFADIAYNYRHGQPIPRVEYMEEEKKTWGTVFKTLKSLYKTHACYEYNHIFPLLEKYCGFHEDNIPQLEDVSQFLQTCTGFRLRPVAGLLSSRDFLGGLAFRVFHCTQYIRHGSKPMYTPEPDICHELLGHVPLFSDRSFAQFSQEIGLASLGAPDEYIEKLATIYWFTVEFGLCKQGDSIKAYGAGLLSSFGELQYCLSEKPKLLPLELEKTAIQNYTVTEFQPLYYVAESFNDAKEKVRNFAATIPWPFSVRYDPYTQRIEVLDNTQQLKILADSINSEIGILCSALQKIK
# Experiment: Cell Based Phenylalanine Flux Assay
# Conditions: A375 R408W cells; 24 hrs with compound, then 20 μM sepiapterin and 800 μM 13C9,15N-Phenylalanine for 4 hours; 13C-Tyrosine by LC-MS; average where tested multiple times
# Summary of the method: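 Phenylalanine-to-tyrosine flux is measured in A375 cells carrying stable human R408W PAH. After 24 h compound exposure, 13C9,15N-Phe (800 μM) with sepiapterin (20 μM) is supplied for 4 h and media 13C-Tyr is read by LC-MS; AC50s are binned.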
row,AC50 [nM],Compound
1,1000 to 5000,"O=C(c1ccnn1C(F)F)N1CCc2[nH]cnc2[C@@H]1c1nc2ccccc2o1 [Example 564, (R)-(4-(benzo[d]oxazol-2-yl)-6,7-dihydro-1H-imidazo[4,5-c]pyridin-5(4H)-yl)(1-(difluoromethyl)-1H-pyrazol-5-yl)methanone]"
2,500 to 1000,"Cc1cccc2nc([C@@H]3c4nc[nH]c4CCN3C(=O)c3nnc(-c4cnn(C)c4)o3)oc12 [Example 565, (S)-(5-(1-methyl-1H-pyrazol-4-yl)-1,3,4-oxadiazol-2-yl)(4-(7-methylbenzo[d]oxazol-2-yl)-6,7-dihydro-1H-imidazo[4,5-c]pyridin-5(4H)-yl)methanone]"
3,1000 to 5000,"Cc1cccc2nc([C@H]3c4nc[nH]c4CCN3C(=O)c3nnc(-c4cnn(C)c4)o3)oc12 [Example 566, (R)-(5-(1-methyl-1H-pyrazol-4-yl)-1,3,4-oxadiazol-2-yl)(4-(7-methylbenzo[d]oxazol-2-yl)-6,7-dihydro-1H-imidazo[4,5-c]pyridin-5(4H)-yl)methanone]"
4,≤ 500,"Cc1cccc2nc([C@@H]3c4nc[nH]c4CCN3C(=O)c3nnc(-c4ccccn4)o3)oc12 [Example 567, (S)-(4-(7-methylbenzo[d]oxazol-2-yl)-6,7-dihydro-1H-imidazo[4,5-c]pyridin-5(4H)-yl)(5-(pyridin-2-yl)-1,3,4-oxadiazol-2-yl)methanone]"
5,1000 to 5000,"Cc1cccc2nc([C@H]3c4nc[nH]c4CCN3C(=O)c3nnc(-c4ccccn4)o3)oc12 [Example 568, (R)-(4-(7-methylbenzo[d]oxazol-2-yl)-6,7-dihydro-1H-imidazo[4,5-c]pyridin-5(4H)-yl)(5-(pyridin-2-yl)-1,3,4-oxadiazol-2-yl)methanone]"
6,≤ 500,"Cc1ncoc1C(=O)N1CCc2[nH]cnc2[C@H]1c1nc2cccc(F)c2o1 [Example 569, (S)-(4-(7-fluorobenzo[d]oxazol-2-yl)-6,7-dihydro-1H-imidazo[4,5-c]pyridin-5(4H)-yl)(4-methyloxazol-5-yl)methanone]"
7,1000 to 5000,"Cc1ncoc1C(=O)N1CCc2[nH]cnc2[C@@H]1c1nc2cccc(F)c2o1 [Example 570, (R)-(4-(7-fluorobenzo[d]oxazol-2-yl)-6,7-dihydro-1H-imidazo[4,5-c]pyridin-5(4H)-yl)(4-methyloxazol-5-yl)methanone]"
8,≤ 500,"CC(C)(O)c1nc(C(F)F)c(C(=O)N2CCc3[nH]cnc3[C@H]2c2nc3cc(Br)cc(F)c3o2)o1 [Example 571, (S)-(4-(5-bromo-7-fluorobenzo[d]oxazol-2-yl)-6,7-dihydro-1H-imidazo[4,5-c]pyridin-5(4H)-yl)(4-(difluoromethyl)-2-(2-hydroxypropan-2-yl)oxazol-5-yl)methanone]"
9,≤ 500,"CC(C)(O)c1nc(C(F)F)c(C(=O)N2CCc3[nH]cnc3[C@@H]2c2nc3cc(Br)cc(F)c3o2)o1 [Example 572, (R)-(4-(5-bromo-7-fluorobenzo[d]oxazol-2-yl)-6,7-dihydro-1H-imidazo[4,5-c]pyridin-5(4H)-yl)(4-(difluoromethyl)-2-(2-hydroxypropan-2-yl)oxazol-5-yl)methanone]"
10,≤ 500,"O=C(c1ocnc1C(F)F)N1CCc2[nH]cnc2[C@H]1c1nc2cc(Br)cc(F)c2o1 [Example 573, (S)-(4-(5-bromo-7-fluorobenzo[d]oxazol-2-yl)-6,7-dihydro-1H-imidazo[4,5-c]pyridin-5(4H)-yl)(4-(difluoromethyl)oxazol-5-yl)methanone]"
11,≤ 500,"O=C(c1ocnc1C(F)F)N1CCc2[nH]cnc2[C@@H]1c1nc2cc(Br)cc(F)c2o1 [Example 574, (R)-(4-(5-bromo-7-fluorobenzo[d]oxazol-2-yl)-6,7-dihydro-1H-imidazo[4,5-c]pyridin-5(4H)-yl)(4-(difluoromethyl)oxazol-5-yl)methanone]"
12,1000 to 5000,"O=C(c1cnco1)N1CCc2[nH]cnc2[C@H]1c1nc2cc(F)cc(F)c2o1 [Example 575, (S)-(4-(5,7-difluorobenzo[d]oxazol-2-yl)-6,7-dihydro-1H-imidazo[4,5-c]pyridin-5(4H)-yl)(oxazol-5-yl)methanone]"
13,1000 to 5000,"O=C(c1cnco1)N1CCc2[nH]cnc2[C@@H]1c1nc2cc(F)cc(F)c2o1 [Example 576, (R)-(4-(5,7-difluorobenzo[d]oxazol-2-yl)-6,7-dihydro-1H-imidazo[4,5-c]pyridin-5(4H)-yl)(oxazol-5-yl)methanone]"
14,500 to 1000,"Cn1nc(C(F)F)nc1C(=O)N1CCc2[nH]cnc2[C@H]1c1nc2cc(F)cc(F)c2o1 [Example 577, (S)-(4-(5,7-difluorobenzo[d]oxazol-2-yl)-6,7-dihydro-1H-imidazo[4,5-c]pyridin-5(4H)-yl)(3-(difluoromethyl)-1-methyl-1H-1,2,4-triazol-5-yl)methanone]"
15,1000 to 5000,"Cn1nc(C(F)F)nc1C(=O)N1CCc2[nH]cnc2[C@@H]1c1nc2cc(F)cc(F)c2o1 [Example 578, (R)-(4-(5,7-difluorobenzo[d]oxazol-2-yl)-6,7-dihydro-1H-imidazo[4,5-c]pyridin-5(4H)-yl)(3-(difluoromethyl)-1-methyl-1H-1,2,4-triazol-5-yl)methanone]"
16,≤ 500,"O=C(c1nnc(-c2ccccn2)o1)N1CCc2[nH]cnc2[C@@H]1c1nc2cc(F)cc(F)c2o1 [Example 579, (R)-(4-(5,7-difluorobenzo[d]oxazol-2-yl)-6,7-dihydro-1H-imidazo[4,5-c]pyridin-5(4H)-yl)(5-(pyridin-2-yl)-1,3,4-oxadiazol-2-yl)methanone]"
17,500 to 1000,"O=C(c1nnc(-c2ccccn2)o1)N1CCc2[nH]cnc2[C@H]1c1nc2cc(F)cc(F)c2o1 [Example 580, (S)-(4-(5,7-difluorobenzo[d]oxazol-2-yl)-6,7-dihydro-1H-imidazo[4,5-c]pyridin-5(4H)-yl)(5-(pyridin-2-yl)-1,3,4-oxadiazol-2-yl)methanone]"
18,≤ 500,"Cn1cc(-c2nnc(C(=O)N3CCc4[nH]cnc4[C@H]3c3nc4ccccc4o3)o2)cn1 [Example 581, (S)-(4-(benzo[d]oxazol-2-yl)-6,7-dihydro-1H-imidazo[4,5-c]pyridin-5(4H)-yl)(5-(1-methyl-1H-pyrazol-4-yl)-1,3,4-oxadiazol-2-yl)methanone]"
19,1000 to 5000,"Cn1cc(-c2nnc(C(=O)N3CCc4[nH]cnc4[C@@H]3c3nc4ccccc4o3)o2)cn1 [Example 582, (R)-(4-(benzo[d]oxazol-2-yl)-6,7-dihydro-1H-imidazo[4,5-c]pyridin-5(4H)-yl)(5-(1-methyl-1H-pyrazol-4-yl)-1,3,4-oxadiazol-2-yl)methanone]"
20,≤ 500,"O=C(c1nnc(-c2ccccn2)o1)N1CCc2[nH]cnc2[C@H]1c1nc2ccccc2o1 [Example 583, (S)-(4-(benzo[d]oxazol-2-yl)-6,7-dihydro-1H-imidazo[4,5-c]pyridin-5(4H)-yl)(5-(pyridin-2-yl)-1,3,4-oxadiazol-2-yl)methanone]"
21,1000 to 5000,"O=C(c1nnc(-c2ccccn2)o1)N1CCc2[nH]cnc2[C@@H]1c1nc2ccccc2o1 [Example 584, (R)-(4-(benzo[d]oxazol-2-yl)-6,7-dihydro-1H-imidazo[4,5-c]pyridin-5(4H)-yl)(5-(pyridin-2-yl)-1,3,4-oxadiazol-2-yl)methanone]"
22,≤ 500,"O=C(c1oc(C2(O)CCC2)nc1C(F)(F)F)N1CCc2[nH]cnc2[C@H]1c1nc2cc(F)ccc2o1 [Example 585, (S)-(4-(5-fluorobenzo[d]oxazol-2-yl)-6,7-dihydro-1H-imidazo[4,5-c]pyridin-5(4H)-yl)(2-(1-hydroxycyclobutyl)-4-(trifluoromethyl)oxazol-5-yl)methanone]"
23,1000 to 5000,"O=C(c1oc(C2(O)CCC2)nc1C(F)(F)F)N1CCc2[nH]cnc2[C@@H]1c1nc2cc(F)ccc2o1 [Example 586, (R)-(4-(5-fluorobenzo[d]oxazol-2-yl)-6,7-dihydro-1H-imidazo[4,5-c]pyridin-5(4H)-yl)(2-(1-hydroxycyclobutyl)-4-(trifluoromethyl)oxazol-5-yl)methanone]"
24,≤ 500,"O=C(c1oc(-c2ccccn2)nc1C(F)F)N1CCc2[nH]cnc2[C@H]1c1nc2cccc(F)c2o1 [Example 587, (S)-(4-(difluoromethyl)-2-(pyridin-2-yl)oxazol-5-yl)(4-(7-fluorobenzo[d]oxazol-2-yl)-6,7-dihydro-1H-imidazo[4,5-c]pyridin-5(4H)-yl)methanone]"
25,≤ 500,"O=C(c1oc(-c2ccccn2)nc1C(F)F)N1CCc2[nH]cnc2[C@@H]1c1nc2cccc(F)c2o1 [Example 588, (R)-(4-(difluoromethyl)-2-(pyridin-2-yl)oxazol-5-yl)(4-(7-fluorobenzo[d]oxazol-2-yl)-6,7-dihydro-1H-imidazo[4,5-c]pyridin-5(4H)-yl)methanone]"
26,≤ 500,"O=C(c1oc(-c2cccnc2)nc1C(F)F)N1CCc2[nH]cnc2[C@@H]1c1nc2cccc(F)c2o1 [Example 589, (R)-(4-(difluoromethyl)-2-(pyridin-3-yl)oxazol-5-yl)(4-(7-fluorobenzo[d]oxazol-2-yl)-6,7-dihydro-1H-imidazo[4,5-c]pyridin-5(4H)-yl)methanone]"
27,≤ 500,"O=C(c1oc(-c2cccnc2)nc1C(F)F)N1CCc2[nH]cnc2[C@H]1c1nc2cccc(F)c2o1 [Example 590, (S)-(4-(difluoromethyl)-2-(pyridin-3-yl)oxazol-5-yl)(4-(7-fluorobenzo[d]oxazol-2-yl)-6,7-dihydro-1H-imidazo[4,5-c]pyridin-5(4H)-yl)methanone]"
